Assay results from patent publication US12139520B2 (priority 2020, dated 2024).
pEC50: −log10 of the molar value. Numbered stars: 1 amine (or outer) side, 2 acyl side, 3 side chain; on linkers, the order of the positions; unused ones are H or OH. Bridge positions count the residues as written; N and C are the ends. Square brackets hold non-standard residues; d marks the D form. Peptide text beside a SMILES is read from it. * marks the point of attachment. C20 diacid = O=C(O)CCCCCCCCCCCCCCCCCCC(=O)*; γGlu = O=C(O)[C@H](CCC(=O)[*:2])N[*:1]; Hyp = O=C(O)[C@@H]1C[C@@H](O)CN1

Columns and labels:
hAMY3 receptor = molecular target: T1, hAMY3 receptor (Homo sapiens, UniProt O60896+P30988); experiment: cAMP assay for in vitro receptor activation, hAMY3-R; format: cell-based; conditions: cAMP assay, hAMY3 receptor; read-out: hAMY3R EC50
T1 sequence (P30988 25-474): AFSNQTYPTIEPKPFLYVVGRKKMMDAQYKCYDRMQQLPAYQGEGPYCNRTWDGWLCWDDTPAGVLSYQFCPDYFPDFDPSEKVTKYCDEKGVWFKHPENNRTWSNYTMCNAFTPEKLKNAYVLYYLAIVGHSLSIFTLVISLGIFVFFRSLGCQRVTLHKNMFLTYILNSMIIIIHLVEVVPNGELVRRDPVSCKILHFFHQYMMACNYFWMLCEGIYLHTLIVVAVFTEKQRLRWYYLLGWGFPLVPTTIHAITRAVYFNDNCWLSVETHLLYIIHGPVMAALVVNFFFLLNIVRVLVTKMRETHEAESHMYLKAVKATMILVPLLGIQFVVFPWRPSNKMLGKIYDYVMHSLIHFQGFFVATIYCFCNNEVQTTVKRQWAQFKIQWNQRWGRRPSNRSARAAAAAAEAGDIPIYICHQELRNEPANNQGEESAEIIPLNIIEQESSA
T1 sequence (O60896 24-148 partner): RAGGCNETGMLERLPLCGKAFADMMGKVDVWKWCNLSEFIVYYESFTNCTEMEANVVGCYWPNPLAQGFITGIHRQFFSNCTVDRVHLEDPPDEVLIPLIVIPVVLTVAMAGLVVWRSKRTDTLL
Summary of the method: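 Accumulated cAMP was detected by time-resolved FRET one hour after reagent addition. Beforehand, hAMY3-R-overexpressing monoclonal cells (2000/well, DPBS, 0.05% casein, 0.5 mM IBMX) received graded doses of compound for 30 min at room temperature; human amylin served as positive control.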

hAM1 receptor = hAM1 receptor (Homo sapiens, UniProt O60895+Q16602); experiment: cAMP assay for in vitro receptor activation, hAM1-R; format: cell-based; conditions: cAMP assay, hAM1 receptor; read-out: hAM1R EC50
Sequence of hAM1 receptor (Q16602 23-461): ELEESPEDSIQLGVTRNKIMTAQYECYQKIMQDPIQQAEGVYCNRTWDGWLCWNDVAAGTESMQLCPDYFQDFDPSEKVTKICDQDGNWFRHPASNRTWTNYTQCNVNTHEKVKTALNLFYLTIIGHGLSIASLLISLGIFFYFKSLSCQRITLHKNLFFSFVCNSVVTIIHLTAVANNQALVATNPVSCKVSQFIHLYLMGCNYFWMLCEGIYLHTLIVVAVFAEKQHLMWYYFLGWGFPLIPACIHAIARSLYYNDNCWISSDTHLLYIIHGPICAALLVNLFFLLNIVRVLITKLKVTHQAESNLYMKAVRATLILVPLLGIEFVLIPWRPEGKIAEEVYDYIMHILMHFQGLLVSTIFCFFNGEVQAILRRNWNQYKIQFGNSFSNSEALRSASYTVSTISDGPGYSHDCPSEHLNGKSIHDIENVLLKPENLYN
Sequence of hAM1 receptor (O60895 43-175 partner): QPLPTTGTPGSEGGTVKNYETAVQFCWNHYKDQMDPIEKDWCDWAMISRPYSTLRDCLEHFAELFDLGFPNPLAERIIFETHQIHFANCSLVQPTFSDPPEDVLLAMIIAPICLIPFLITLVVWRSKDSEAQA
Summary of the method: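 A subcloned monoclonal line stably expressing hAM1 receptor is thawed and plated at 8000 cells/well. The assay buffer is DPBS with 0.05% casein and 0.5 mM IBMX, and receptor activation is followed by cAMP levels.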

| Structure (SMILES) | pEC50 (hAMY3 receptor) | pEC50 (hAM1 receptor) |
| --- | --- | --- |
| CC[C@H](C)[C@H](NC(=O)[C@H](CCC(N)=O)NC(=O)[C@H](Cc1c[nH]cn1)NC(=O)[C@H](C)NC(=O)[C@H](CC(C)C)NC(=O)[C@H](CCCNC(=N)N)NC(=O)[C@H](CCC(N)=O)NC(=O)[C@@H](NC(=O)[C@@H](NC(=O)[C@@H]1CSSC[C@H](NC(=O)[C@H](CCCCN)NC(=O)CC[C@H](NC(=O)CCCCCCCCCCCCCCCCCCC(=O)O)C(=O)O)C(=O)N[C@@H](CC(N)=O)C(=O)N[C@@H]([C@@H](C)O)C(=O)N[C@@H](CO)C(=O)N[C@@H]([C@@H](C)O)C(=O)N1)[C@@H](C)O)C(C)C)C(=O)N[C@@H](C)C(=O)N[C@@H](CCC(N)=O)C(=O)N[C@@H](Cc1ccccc1)C(=O)N[C@H](C(=O)N[C@@H](CC(=O)O)C(=O)N[C@@H](CCCCN)C(=O)N[C@@H](CC(=O)O)C(=O)N[C@@H](CCCCN)C(=O)N[C@@H](CC(=O)O)C(=O)N1CCC[C@H]1C(=O)N[C@H](C(=O)N[C@@H](C)C(=O)N1CCC[C@H]1C(=O)N1CCC[C@H]1C(=O)N[C@H](C(=O)N[C@@H](CC(N)=O)C(=O)N[C@H](C(=O)NCC(=O)N[C@@H](CO)C(=O)N[C@@H](CC(N)=O)C(=O)NCC(=O)N1C[C@H](O)C[C@H]1C(N)=O)C(C)C)[C@@H](C)O)C(C)C)[C@@H](C)O [compound 88] ({C20 diacid-γGlu}-KCNTSTCTVQRLAHQIAQFTDKDKDPVAPPTNVGSNG[Hyp]-NH2; disulfide 2-7) | 10.82 | < 5.30 |
| CC[C@H](C)[C@H](NC(=O)[C@H](CCC(N)=O)NC(=O)[C@H](Cc1c[nH]cn1)NC(=O)[C@H](C)NC(=O)[C@H](CC(C)C)NC(=O)[C@H](CCCNC(=N)N)NC(=O)[C@H](CCC(N)=O)NC(=O)[C@@H](NC(=O)[C@@H](NC(=O)[C@@H]1CSSC[C@H](NC(=O)[C@H](CCCCN)NC(=O)CC[C@H](NC(=O)CCCCCCCCCCCCCCCCCCC(=O)O)C(=O)O)C(=O)N[C@@H](CC(N)=O)C(=O)N[C@@H]([C@@H](C)O)C(=O)N[C@@H](C)C(=O)N[C@@H]([C@@H](C)O)C(=O)N1)[C@@H](C)O)C(C)C)C(=O)N[C@@H](Cc1ccc(O)cc1)C(=O)N[C@@H](CCC(N)=O)C(=O)N[C@@H](Cc1ccccc1)C(=O)N[C@H](C(=O)N[C@@H](CC(=O)O)C(=O)N[C@@H](CCCCN)C(=O)N[C@@H](CC(=O)O)C(=O)N[C@@H](CCCCN)C(=O)N[C@@H](CC(=O)O)C(=O)N[C@@H](CC(N)=O)C(=O)N[C@H](C(=O)N[C@@H](C)C(=O)N1CCC[C@H]1C(=O)N1CCC[C@H]1C(=O)N[C@H](C(=O)N[C@@H](CC(N)=O)C(=O)N[C@H](C(=O)NCC(=O)N[C@@H](CO)C(=O)N[C@@H](CC(N)=O)C(=O)NCC(=O)N1C[C@H](O)C[C@H]1C(N)=O)C(C)C)[C@@H](C)O)C(C)C)[C@@H](C)O [compound 77] ({C20 diacid-γGlu}-KCNTATCTVQRLAHQIYQFTDKDKDNVAPPTNVGSNG[Hyp]-NH2; disulfide 2-7) | 10.85 | < 5.30 |
| CC[C@H](C)[C@H](NC(=O)[C@H](CCC(N)=O)NC(=O)[C@H](Cc1c[nH]cn1)NC(=O)[C@H](C)NC(=O)[C@H](CC(C)C)NC(=O)[C@H](CCCNC(=N)N)NC(=O)[C@H](C)NC(=O)[C@@H](NC(=O)[C@@H](NC(=O)[C@@H]1CSSC[C@H](NC(=O)[C@H](CCCCN)NC(=O)CC[C@H](NC(=O)CCCCCCCCCCCCCCCCCCC(=O)O)C(=O)O)C(=O)N[C@@H](CC(N)=O)C(=O)N[C@@H]([C@@H](C)O)C(=O)N[C@@H](C)C(=O)N[C@@H]([C@@H](C)O)C(=O)N1)[C@@H](C)O)C(C)C)C(=O)N[C@@H](Cc1ccc(O)cc1)C(=O)N[C@@H](CCC(N)=O)C(=O)N[C@@H](Cc1ccccc1)C(=O)N[C@H](C(=O)N[C@@H](CC(=O)O)C(=O)N[C@@H](CCCCN)C(=O)N[C@@H](CC(=O)O)C(=O)N[C@@H](CCCCN)C(=O)N[C@@H](CC(=O)O)C(=O)N[C@@H](CC(N)=O)C(=O)N[C@H](C(=O)N[C@@H](C)C(=O)N1CCC[C@H]1C(=O)N1CCC[C@H]1C(=O)N[C@H](C(=O)N[C@@H](CC(N)=O)C(=O)N[C@H](C(=O)NCC(=O)N[C@@H](CO)C(=O)N[C@@H](CC(N)=O)C(=O)NCC(=O)N1C[C@H](O)C[C@H]1C(N)=O)C(C)C)[C@@H](C)O)C(C)C)[C@@H](C)O [compound 37] ({C20 diacid-γGlu}-KCNTATCTVARLAHQIYQFTDKDKDNVAPPTNVGSNG[Hyp]-NH2; disulfide 2-7) | 11.00 | < 5.30 |
